Tests used:
HCT116 cells = assay: RUSH imaging of ER-to-Golgi transport; assay type: cell-based; conditions: for colocalized fraction with GM130 (Manders' M1), average: mScarlet-I fusion
Method: For live-cell imaging using RUSH system, li-Str_ST-SBP-mCherry (Plasmid #65269) was purchased from Addgene. We replaced mCherry with mScarlet-I-EPO or mScarlet-I-EPO-motif (SbfI/XbaI). HCT116 cells were plated on 35-mm glass-based dishes, which were coated with poly-L-lysine, and grown overnight. RUSH plasmids to express mScarlet-I-EPO and mScarlet-I-EPO-motif were individually transfected into the cells using Expifectamine^TM 293 reagent. After 24 h, the medium was changed into DMEM including 40 μM (+)-biotin for starting the translocation form ER. […] After blocking with Blocking One solution (Nacalai Tesque), the cells were incubated with polyclonal rabbit anti-GM130 (Proteintech, 11308-1-AP, dilution 1 :1000) and then with Alexa Fluor 488-conjugated anti-rabbit IgG antibody [Jackson ImmunoResearch (West Grove, PA), 711-545-152, dilution 1:1000] in 20 mM Tris-HCl (pH 7.6) containing 150 mM NaCl and 0.05% Tween-20. Cell images were recorded using a fluorescence microscope BZ-X700 and BZ-H3XF/Sectioning Module (Keyence Co., Osaka, Japan) and analyzed by Fiji[31]. For quantification of co-localization of EPO proteins and GM130, the images were thresholded by the Otsu method and analyzed by calculating Manders’ coefficient (M1) with Coloc2 plugin[32]. Because of abnormal distribution of the imaging data based on Shapiro–Wilk normality test, nonparametric statistics were used for the analysis. All statistical analysis was performed in the R statistical environment version 3.5.3[33].

ΔERGIC-53 HCT116 cells = assay: EPO secretion level (ELISA) from ERGIC-53 KO HCT116 cells; assay type: cell-based
From the text: The guide RNAs (gRNAs) flanking the target enhancer regions for ERGIC-53 and MCFD2 were designed using ToolGen’s dRGEN synthesis service (Seoul, South Korea). The target DNA sequences of the gRNAs used in the present study were as follows: for MCFD2 deletion, […], and for ERGIC-53 deletion, […]. The gRNA expression plasmids (pRGEN-U6-sgRNA) were purchased from ToolGen. To generate the KO cells of MCFD2 or ERGIC-53, individual gRNA plasmids and a plasmid-expressing Cas9-green fluorescent protein (GFP) (Addgene, catalog #44719) were transiently transfected into HCT116 cells, which are diploid cells suitable for genome editing using the CRISPR/Cas9 method, in a six-well plate using polyethylenimine “Max” (Polysciences Inc., Warrington, PA) and a Cas9:gRNA molar ratio of 1:5 as described previously. At 48 h post transfection, cells with high GFP expression were identified using fluorescence-activated cell sorting with the BD FACSAria II cell sorter (BD Biosciences, San Jose, CA). For knocking out ERGL in the wild-type and ERGIC-53-KO cells, the Guide-it CRISPR/Cas9 System (green/red) (Takara Bio Inc., Kusatsu, Japan) was used for the cloning and expression of target single gRNAs, whose target ERGL DNA sequences were […] and […]. The two constructed pGuide-it Vectors (green and red) were transiently transfected into HCT116 cells. At 48 h post transfection, cells with high ZsGreen1 and tdTomato expression were identified using fluorescence-activated cell sorting. Sorted cells were plated into individual wells of a 96-well plate and then re-plated as single cells in 6 cm dishes. The deletions in the clones were confirmed by polymerase chain reaction and sequencing analysis (Supplementary Figs. 8, 9, 10, and 11).
For expression of the FVIII and FV full-length and deletion mutant proteins in mammalian cells, the codon-optimized FVIII and FV genes were inserted into the p3XFLAG-CMV-14 Expression Vector and p3XFLAG-CMV-9 Expression Vector, respectively (Sigma-Aldrich, St. Louis, MO). For the expression of the wild-type and mutated AAT, EPO, and sFγRIIIa in mammalian cells, the corresponding genes (purchased from FASMAC Co., Ltd., Atsuki, Japan) were inserted into the p3XFLAG-CMV-9 Expression Vector (Sigma-Aldrich). […]
The secreted levels of FVIII and FV antigens in the culture medium were determined with an sandwich enzyme-linked immunosorbent assay (ELISA) method using the VisuLize FVIII Antigen Kit (Affinity Biologicals Inc., Ancaster, ON) and the Asssay Max™ Human Factor V ELISA Kit (ASSAYPRO, MO), respectively. The secreted levels of AAT and EPO antigens in the culture medium were determined with an ELASA method using the anti-AAT antibody (Agilent, Santa Clara, CA) and anti-Flag M2 antibody (Sigma-Aldrich), respectively.

EPO: recombinant Flag-tagged erythropoietin without motif (Fig. 5 prints EPO for mScarlet-I-EPO)
colocalized fraction with GM130 (Manders' M1) (HCT116 cells; 0 min, Figure No. 1): 0.028
colocalized fraction with GM130 (Manders' M1) (HCT116 cells; 0 min, Figure No. 2): 0.024
colocalized fraction with GM130 (Manders' M1) (HCT116 cells; 0 min, Figure No. 3): 0.051
colocalized fraction with GM130 (Manders' M1) (HCT116 cells; 0 min, Figure No. 4): 0.098
colocalized fraction with GM130 (Manders' M1) (HCT116 cells; 0 min, Figure No. 5): 0.14
colocalized fraction with GM130 (Manders' M1) (HCT116 cells; 0 min, Figure No. 6): 0.098
colocalized fraction with GM130 (Manders' M1) (HCT116 cells; 0 min, Figure No. 7): 0.128
colocalized fraction with GM130 (Manders' M1) (HCT116 cells; 0 min, Figure No. 8): 0.018
colocalized fraction with GM130 (Manders' M1) (HCT116 cells; 0 min, Figure No. 9): 0.026
colocalized fraction with GM130 (Manders' M1), average (HCT116 cells; 0 min after biotin (40 μM), n = 9 cells): 0.06789
colocalized fraction with GM130 (Manders' M1) (HCT116 cells; 30 min, Figure No. 1): 0.115
colocalized fraction with GM130 (Manders' M1) (HCT116 cells; 30 min, Figure No. 2): 0.302
colocalized fraction with GM130 (Manders' M1) (HCT116 cells; 30 min, Figure No. 3): 0.628
colocalized fraction with GM130 (Manders' M1) (HCT116 cells; 30 min, Figure No. 4): 0.57
colocalized fraction with GM130 (Manders' M1) (HCT116 cells; 30 min, Figure No. 5): 0.472
colocalized fraction with GM130 (Manders' M1) (HCT116 cells; 30 min, Figure No. 6): 0.508
colocalized fraction with GM130 (Manders' M1) (HCT116 cells; 30 min, Figure No. 7): 0.39
colocalized fraction with GM130 (Manders' M1) (HCT116 cells; 30 min, Figure No. 8): 0.267
colocalized fraction with GM130 (Manders' M1) (HCT116 cells; 30 min, Figure No. 9): 0.53
colocalized fraction with GM130 (Manders' M1) (HCT116 cells; 30 min, Figure No. 10): 0.285
colocalized fraction with GM130 (Manders' M1), average (HCT116 cells; 30 min after biotin (40 μM), n = 10 (EPO) or 13 (EPO-motif) cells): 0.4067
ER-to-Golgi trafficking (HCT116 cells; 30 min after biotin addition): localized in the Golgi to varying extents depending on the C-terminal motif
localization in RUSH imaging (HCT116 cells; before addition of biotin (time 0)): typical ER localization
EPO secretion level (Figure 4D), average (ΔERGIC-53 HCT116 cells; average, n = 3, EPO in wild type = 1): 1.297
EPO secretion level (Figure 4D) (ΔERGIC-53 HCT116 cells; replicate 1): 1.122
EPO secretion level (Figure 4D) (ΔERGIC-53 HCT116 cells; replicate 2): 1.395
EPO secretion level (Figure 4D) (ΔERGIC-53 HCT116 cells; replicate 3): 1.373

Source: publication PMC7069976, “Improved secretion of glycoproteins using an N-glycan-restricted passport sequence tag recognized by cargo receptor” (Nature Communications, 2020)
